Laboratory results reported in paper PMC8279409, “Novel Mixed NOP/Opioid Receptor Peptide Agonists” (Journal of Medicinal Chemistry, 2021).
Like-named read-outs stand apart in the source and are kept apart here. Where no end group is shown, it is not given here.

Legend:
Format in all cases: cell-based
human NOP receptor [1] = target: T1, human NOP receptor (Homo sapiens, UniProt P41146); assay: Calcium mobilization, NOP receptor; details: for NOP pEC50 (CL95%): CHO cells coexpressing human NOP and Gαqi5, Fluo-4 AM, 37 °C, mean of at least three experiments in duplicate, CL95% in brackets; for NOP Emax ± S.E.M. / Emax: mean ± SEM of at least three experiments in duplicate; for NOP/mu CR (concentration ratio): calcium mobilization, NOP versus mu; for Emax: SEM
T1 construct: expressed in transfected cells; host or cells: CHO cells stably coexpressing the receptor and chimeric Gαqi5
T1 sequence (P41146 whole entry): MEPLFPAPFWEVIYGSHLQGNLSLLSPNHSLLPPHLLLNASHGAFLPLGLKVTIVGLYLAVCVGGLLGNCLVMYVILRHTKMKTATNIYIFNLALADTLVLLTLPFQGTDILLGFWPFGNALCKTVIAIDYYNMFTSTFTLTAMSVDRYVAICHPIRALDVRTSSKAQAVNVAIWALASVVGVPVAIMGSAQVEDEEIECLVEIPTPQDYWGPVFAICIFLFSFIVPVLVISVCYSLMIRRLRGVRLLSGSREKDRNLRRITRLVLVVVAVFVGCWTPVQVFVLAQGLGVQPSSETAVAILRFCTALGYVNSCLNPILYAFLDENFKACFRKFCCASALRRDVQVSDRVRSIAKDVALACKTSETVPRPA
Description: CHO cells stably coexpressing the human NOP or kappa or the mu receptor and the C-terminally modified Gαqi5 and CHO cells coexpressing the delta receptor and the GαqG66Di5 protein were generated and cultured as described previously.[45],[46] Cells were maintained in Dulbecco’s modified Eagle’s medium/nutrient mixture F-12 (DEMEM/F-12) supplemented with 10% FBS, 100 U/mL penicillin and 100 μg/mL streptomycin, 100 μg/mL hygromicin B, and 200 μg/mL G418 and cultured at 37 °C in 5% CO2 humidified air. Cells were seeded at a density of 50,000 cells/well into 96-well black, clear-bottom plates. The following day, the cells were incubated with Hanks’ balanced salt solution (HBSS) supplemented with 2.5 mM probenecid, 3 μM of the calcium-sensitive fluorescent dye Fluo-4 AM, and 0.01% pluronic acid for 30 min at 37 °C. After that time, the loading solution was aspirated and 100 μL/well of HBSS supplemented with 20 mM HEPES, 2.5 mM probenecid, and 500 μM brilliant black was added. Serial dilutions were carried out in HBSS/HEPES (20 mM) buffer (containing 0.02% BSA fraction V). After placing both plates (cell culture and master plate) into the fluorometric imaging plate reader FlexStation II (Molecular Devices, Sunnyvale, CA), fluorescence changes were measured. On-line additions were carried out in a volume of 50 μL/well. To facilitate drug diffusion into the wells, the present studies were performed at 37 °C. Maximum change in fluorescence, expressed as percent over the baseline fluorescence, was used to determine agonist response.
(§1) The pharmacological terminology adopted in this paper is consistent with IUPHAR recommendations.[59] All data are expressed as the mean ± standard error of the mean (SEM) of at least three experiments performed in duplicate. […] Concentration-response curves to agonists were fitted to the classical four-parameter logistic nonlinear regression model:
(§2) Effect = Baseline + (Emax – Baseline)/(1 + 10^(LogEC50 – Log[compound]) × Hillslope). Curve fitting was performed using PRISM 6.0 (GraphPad Software Inc., San Diego).

human mu receptor [2] = target: T2, human mu receptor (Homo sapiens, UniProt P35372); assay: Calcium mobilization, mu opioid receptor; details: for Emax / activation at 10 µM: percent over the baseline fluorescence, SEM; for Emax: mean ± SEM of at least three experiments in duplicate; for mu pEC50 (CL95%): CHO cells coexpressing human mu receptor and Gαqi5, Fluo-4 AM, 37 °C, mean of at least three experiments in duplicate, CL95% in brackets; for pEC50_mu: molecular formula strings CSV, repeats calcium mobilization values of Tables 1-3; for activation at 10 µM: mean ± SEM
T2 construct: expressed in transfected cells; host or cells: CHO cells stably coexpressing the receptor and chimeric Gαqi5
T2 sequence (P35372 whole entry): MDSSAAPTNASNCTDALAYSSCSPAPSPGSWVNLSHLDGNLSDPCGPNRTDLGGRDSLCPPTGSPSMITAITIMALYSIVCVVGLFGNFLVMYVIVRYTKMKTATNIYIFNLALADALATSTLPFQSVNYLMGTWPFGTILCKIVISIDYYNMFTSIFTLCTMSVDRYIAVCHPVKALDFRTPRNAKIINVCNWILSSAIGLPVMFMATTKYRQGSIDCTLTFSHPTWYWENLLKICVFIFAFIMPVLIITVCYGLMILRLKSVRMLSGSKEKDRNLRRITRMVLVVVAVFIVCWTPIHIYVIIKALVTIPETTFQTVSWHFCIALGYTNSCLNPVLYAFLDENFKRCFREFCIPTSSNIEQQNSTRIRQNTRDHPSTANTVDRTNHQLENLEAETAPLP

human NOP receptor [3] = target: T1, human NOP receptor; assay: Dynamic mass redistribution (DMR), NOP receptor
Description: CHO cells stably expressing the human NOP and mu receptors were kindly provided by D.G. Lambert (University of Leicester, UK). Cells were cultured in DMEM/F-12 medium supplemented with 10% FBS, 100 U/mL penicillin, 100 μg/mL streptomycin, and 2 mmol/L L-glutamine. The medium was supplemented with 400 μg/mL G418 to maintain expression. Cells were cultured at 37 °C in 5% CO2 humidified air. For DMR measurements, the label-free EnSight Multimode Plate Reader (Perkin Elmer, MA, US) was used. Cells were seeded 15,000 cells/well in a volume of 30 μL onto fibronectin-coated 384-well DMR microplates and cultured for 20 h to obtain confluent monolayers. Cells were starved in the assay buffer (HBSS with 20 mM HEPES, 0.01% BSA fraction V) for 90 min before the test. Serial dilutions were made in the assay buffer. After reading the baseline, compounds were added in a volume of 10 μL; then, DMR changes were recorded for 60 min. Responses were described as picometer (pm) shifts over time (sec) following subtraction of values from vehicle-treated wells. Maximum picometer (pm) modification (peak) was used to generate concentration response curves. […]
The pharmacological terminology adopted in this paper is consistent with IUPHAR recommendations.[59] All data are expressed as the mean ± standard error of the mean (SEM) of at least three experiments performed in duplicate. […]

human mu receptor [4] = target: T2, human mu receptor; assay: Dynamic mass redistribution (DMR), mu receptor; details: for mu Emax ± S.E.M.: maximum picometer (pm) modification (peak), mean ± SEM of at least three experiments in duplicate
Description: CHO cells stably expressing the human NOP and mu receptors were kindly provided by D.G. Lambert (University of Leicester, UK). Cells were cultured in DMEM/F-12 medium supplemented with 10% FBS, 100 U/mL penicillin, 100 μg/mL streptomycin, and 2 mmol/L L-glutamine. The medium was supplemented with 400 μg/mL G418 to maintain expression. Cells were cultured at 37 °C in 5% CO2 humidified air. For DMR measurements, the label-free EnSight Multimode Plate Reader (Perkin Elmer, MA, US) was used. Cells were seeded 15,000 cells/well in a volume of 30 μL onto fibronectin-coated 384-well DMR microplates and cultured for 20 h to obtain confluent monolayers. Cells were starved in the assay buffer (HBSS with 20 mM HEPES, 0.01% BSA fraction V) for 90 min before the test. Serial dilutions were made in the assay buffer. After reading the baseline, compounds were added in a volume of 10 μL; then, DMR changes were recorded for 60 min. Responses were described as picometer (pm) shifts over time (sec) following subtraction of values from vehicle-treated wells. Maximum picometer (pm) modification (peak) was used to generate concentration response curves. All the experiments were carried out at 37 °C.
as §1, §2

[5] = read-out: mu Emax ± S.E.M, Table 1 series
[6] = read-out: mu Emax ± S.E.M., Table 2 series
[7] = read-out: NOP Emax ± S.E.M., Table 2 series, percent over the baseline fluorescence
[8] = read-out: NOP Emax ± S.E.M., Table 1 series, maximum change in fluorescence as percent over the baseline fluorescence
[9] = read-out: mu effect at 10 μM (crc incomplete), Table 1 series

## C[C@@H](NC(=O)[C@@H](N)Cc1ccc(O)cc1)C(=O)N[C@@H](Cc1ccccc1)C(=O)NCC(=O)N[C@@H](Cc1ccc(O)cc1)C(=O)N1CCC[C@H]1C(=O)N[C@@H](CO)C(N)=O [Compound 2, dermorphin, reference compound]
Human NOP receptor [1]; Table 1 series, FlexStation II
  NOP pEC50 (CL95%): inactive
Human NOP receptor [1]; Table 1 series, maximum change in fluorescence as percent over the baseline fluorescence
  NOP Emax ± S.E.M.: inactive
Human NOP receptor [1]; Table 2 series
  NOP pEC50 (CL95%): inactive
Human NOP receptor [1]; Table 2 series, percent over the baseline fluorescence
  NOP Emax ± S.E.M.: inactive
Human NOP receptor [1]; Table 3 series
  NOP pEC50 (CL95%): inactive
Human NOP receptor [1]; Table 3 series, percent over the baseline fluorescence
  NOP Emax ± S.E.M.: inactive
Human NOP receptor [1]; molecular formula strings CSV, repeats calcium mobilization values of Tables 1-3
  pEC50_NOP: inactive
Human mu receptor [2]; [5]
  Emax: 380 ± 15%
Human mu receptor [2]; [6]
  Emax: 306 ± 23%
Human mu receptor [2]; read-out: mu Emax ± S.E.M., Table 3 series
  Emax: 359 ± 18%
Human NOP receptor [3]; CHO cells expressing human NOP, label-free EnSight reader, 60 min, 37 °C, mean of at least three experiments in duplicate, CL95% in brackets
  NOP pEC50 (CL95%): inactive
Human NOP receptor [3]; maximum picometer (pm) modification (peak), mean ± SEM of at least three experiments in duplicate
  NOP Emax ± S.E.M.: inactive
Human mu receptor [4]; DMR, SEM
  mu Emax ± S.E.M.: 151 ± 16

## CC(C)C[C@H](NC(=O)[C@H](CCCCN)NC(=O)[C@H](CCCNC(=N)N)NC(=O)[C@H](C)NC(=O)[C@H](CO)NC(=O)[C@H](CCCCN)NC(=O)[C@H](CCCNC(=N)N)NC(=O)[C@H](C)NC(=O)CNC(=O)[C@@H](NC(=O)[C@H](Cc1ccccc1)NC(=O)CNC(=O)CNC(=O)[C@@H](N)Cc1ccccc1)[C@@H](C)O)C(=O)N[C@@H](C)C(=O)N[C@@H](CC(N)=O)C(=O)N[C@@H](CCC(N)=O)C(=O)O [Compound 36, N/OFQ]
Human mu receptor [4]; DMR, CHO cells expressing human mu receptor, 60 min, 37 °C, mean of at least three experiments in duplicate, CL95% in brackets
  mu pEC50 (CL95%): inactive
Human mu receptor [4]; DMR
  mu Emax ± S.E.M.: inactive
Human mu receptor [4]; molecular formula strings CSV, value of Compound_36 repeats the DMR result of Table 4
  pEC50_mu: inactive

## YGGFFGARKSARK-NH2 [Compound 15, [Tyr^1,Phe^5]N/OFQ(1-13)-NH2]
Human NOP receptor [1]; Table 2 series
  NOP pEC50 (CL95%): 7.72 (7.56–7.87)
  NOP/mu CR (concentration ratio): 0.05
Human NOP receptor [1]; [7]
  Emax: 242 ± 11%
Human mu receptor [2]; Table 2 series
  mu pEC50 (CL95%): 6.41 (5.85–6.97)
Human mu receptor [2]; [6]
  Emax: 315 ± 32%

## YGGFHGARKSARK-NH2 [Compound 16, [Tyr^1,His^5]N/OFQ(1-13)-NH2]
Human NOP receptor [1]; Table 2 series
  NOP pEC50 (CL95%): 7.39 (7.16–7.62)
  NOP/mu CR (concentration ratio): 0.05
Human NOP receptor [1]; [7]
  Emax: 249 ± 23%
Human mu receptor [2]; Table 2 series
  mu pEC50 (CL95%): crc incomplete; 10 μM: 230 ± 37
Human mu receptor [2]
  pEC50_mu: crc incomplete
Human mu receptor [2]; read-out: mu effect at 10 μM (crc incomplete), Table 2 series
  activation at 10 µM: 230 ± 37%

## YGGFK(Ac)GARKSARK-NH2 [Compound 6, [Tyr^1,Lys(Ac)^5]N/OFQ(1-13)-NH2]
Human NOP receptor [1]; Table 1 series, FlexStation II
  NOP pEC50 (CL95%): 8.55 (7.88–9.22)
Human NOP receptor [1]; Table 1 series
  NOP/mu CR (concentration ratio): 0.003
Human NOP receptor [1]; [8]
  Emax: 370 ± 16%
Human mu receptor [2]; Table 1 series
  mu pEC50 (CL95%): crc incomplete; 10 μM: 161 ± 31
Human mu receptor [2]
  pEC50_mu: crc incomplete
Human mu receptor [2]; [9]
  activation at 10 µM: 161 ± 31%

## YGGFKGARKSARK-NH2 [Compound 8, [Tyr^1,Lys^5]N/OFQ(1-13)-NH2]
Human NOP receptor [1]; Table 1 series, FlexStation II
  NOP pEC50 (CL95%): 7.26 (6.74–7.78)
Human NOP receptor [1]; Table 1 series
  NOP/mu CR (concentration ratio): 0.05
Human NOP receptor [1]; [8]
  Emax: 366 ± 6%
Human mu receptor [2]; Table 1 series
  mu pEC50 (CL95%): crc incomplete; 10 μM: 113 ± 35
Human mu receptor [2]
  pEC50_mu: crc incomplete
Human mu receptor [2]; [9]
  activation at 10 µM: 113 ± 35%

## YGGFLGARKSARK-NH2 [Compound 11, [Tyr^1,Leu^5]N/OFQ(1-13)-NH2]
Human NOP receptor [1]; Table 1 series, FlexStation II
  NOP pEC50 (CL95%): 8.03 (7.46–8.60)
Human NOP receptor [1]; Table 1 series
  NOP/mu CR (concentration ratio): 0.01
Human NOP receptor [1]; [8]
  Emax: 339 ± 24%
Human mu receptor [2]; Table 1 series
  mu pEC50 (CL95%): 6.08 (5.95–6.21)
Human mu receptor [2]; [5]
  Emax: 339 ± 25%
